The values below come from paper PMC6280482, “The natural polyphenol curcumin induces apoptosis by suppressing STAT3 signaling in esophageal squamous cell carcinoma” (Journal of Experimental & Clinical Cancer Research : CR, 2018).

This experiment addresses JAK2 (Homo sapiens, UniProt O60674). Kind of experiment: cell-free kinase activity assay with purified JAK2 (HotSpot, Reaction Biology). In kind it is biochemical.

Chain of JAK2 (O60674 whole entry): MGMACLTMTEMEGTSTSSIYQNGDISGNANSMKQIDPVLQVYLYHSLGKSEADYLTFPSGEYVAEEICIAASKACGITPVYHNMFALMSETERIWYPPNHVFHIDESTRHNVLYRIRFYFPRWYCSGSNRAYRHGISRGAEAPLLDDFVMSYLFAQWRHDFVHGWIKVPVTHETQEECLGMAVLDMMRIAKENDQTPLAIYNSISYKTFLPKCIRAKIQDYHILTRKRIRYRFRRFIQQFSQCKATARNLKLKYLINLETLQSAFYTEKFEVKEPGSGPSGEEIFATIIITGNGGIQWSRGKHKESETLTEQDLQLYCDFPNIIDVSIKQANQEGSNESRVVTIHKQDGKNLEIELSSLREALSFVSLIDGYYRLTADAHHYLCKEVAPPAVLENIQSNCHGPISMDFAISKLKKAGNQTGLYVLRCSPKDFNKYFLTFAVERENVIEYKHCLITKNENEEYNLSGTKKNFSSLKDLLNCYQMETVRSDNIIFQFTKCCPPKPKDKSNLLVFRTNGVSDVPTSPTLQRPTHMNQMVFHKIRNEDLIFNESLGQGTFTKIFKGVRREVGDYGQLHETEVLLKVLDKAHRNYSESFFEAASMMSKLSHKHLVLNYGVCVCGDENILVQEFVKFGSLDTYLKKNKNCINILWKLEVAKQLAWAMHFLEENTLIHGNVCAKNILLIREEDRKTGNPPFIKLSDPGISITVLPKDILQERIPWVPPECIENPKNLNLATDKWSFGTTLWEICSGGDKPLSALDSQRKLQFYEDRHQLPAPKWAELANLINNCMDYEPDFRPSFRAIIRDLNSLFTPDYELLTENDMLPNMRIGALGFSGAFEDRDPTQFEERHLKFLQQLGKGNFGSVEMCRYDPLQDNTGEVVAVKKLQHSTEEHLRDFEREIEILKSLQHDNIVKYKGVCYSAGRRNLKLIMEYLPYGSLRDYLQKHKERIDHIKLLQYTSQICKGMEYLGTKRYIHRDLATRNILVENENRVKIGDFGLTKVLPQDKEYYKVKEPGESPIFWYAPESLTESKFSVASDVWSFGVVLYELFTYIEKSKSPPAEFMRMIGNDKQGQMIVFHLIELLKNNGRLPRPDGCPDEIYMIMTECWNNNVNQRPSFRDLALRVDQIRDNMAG

For `COc1cc(/C=C/C(=O)CC(=O)/C=C/c2ccc(O)c(OC)c2)ccc1O` [curcumin], the IC50 (in general, the point on the concentration scale where inhibition reaches its midpoint) was about 8 µM.
